Measured values: patent US20240383856A1 (Zedira GmbH, priority 2021, published 2024)

How the values were obtained:
[1] = logD by shake flask method (octanol / PBS pH 7.4, HPLC); type: physicochemical; settings: octanol / PBS pH 7.4, shake flask
Description: In order to classify the inventive compounds according to their lipophilicity, LogD values (distribution coefficient) were determined by means of the well-established shake flask method, measuring the partition of a compound between an octanol and phosphate-buffered saline (PBS, pH 7.4) by HPLC.
The LogD is pH dependent and is a “predictor” for in-vivo properties. LogD combines lipophilicity (intrinsic structural property of the molecule, logP) and ionizability (pKa). Compounds with a moderate lipophilicity (LogD values from 0 to 3) are usually advantaged for oral absorption, being in balance between solubility and permeability. However, sophisticated formulation of a compound might improve oral bioavailability for highly lipophilic compounds.

[2] = Caco-2 permeability assay (CacoReady kit); type: in vitro ADME; settings: human, Caco-2, Caco-2 barrier, CacoReady kit; above 1×10^−6 cm/s classified as permeable
Description: Permeability coefficients (Papp values) were obtained from Caco-2 barrier studies predicting oral/intestinal bioavailability of the tested compounds. The assays were performed by using CacoReady™ ready-to-use kits from ReadyCell according to the manufacturers protocol.

[3] = target: T1, recombinant human transglutaminase 2 (Homo sapiens, UniProt P21980); assay: Transglutaminase assay (DCC-assay): incorporation of dansylcadaverine into dimethylcasein; type: biochemical; settings: recombinant human TG2 10 nM; dansylcadaverine incorporation into dimethylcasein; read-out: IC50 TG2
T1 construct: purchased Zedira T022
T1 sequence (P21980 1-687): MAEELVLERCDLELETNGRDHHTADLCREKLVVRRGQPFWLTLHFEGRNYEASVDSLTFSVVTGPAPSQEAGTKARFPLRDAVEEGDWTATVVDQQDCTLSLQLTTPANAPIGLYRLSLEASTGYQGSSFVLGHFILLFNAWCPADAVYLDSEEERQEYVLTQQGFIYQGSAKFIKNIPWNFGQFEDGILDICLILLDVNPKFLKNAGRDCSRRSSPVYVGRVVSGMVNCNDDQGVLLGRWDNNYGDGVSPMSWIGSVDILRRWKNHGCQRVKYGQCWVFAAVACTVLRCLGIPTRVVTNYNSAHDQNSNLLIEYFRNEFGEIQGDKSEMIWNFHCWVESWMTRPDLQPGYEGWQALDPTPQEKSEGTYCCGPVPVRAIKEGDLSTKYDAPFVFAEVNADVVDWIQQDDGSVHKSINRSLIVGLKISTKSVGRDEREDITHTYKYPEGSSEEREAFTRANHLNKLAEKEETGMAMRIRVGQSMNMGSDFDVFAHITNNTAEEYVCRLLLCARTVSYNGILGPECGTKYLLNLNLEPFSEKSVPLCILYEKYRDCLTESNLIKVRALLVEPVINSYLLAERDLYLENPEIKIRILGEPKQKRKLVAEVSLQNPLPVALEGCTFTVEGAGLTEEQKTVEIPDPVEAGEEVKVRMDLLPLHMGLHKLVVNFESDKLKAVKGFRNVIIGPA
Description: To illustrate the advantage of branched alkyl moieties over aromatic moieties, we refer to reference compounds Ref. 2 (ZED1227, U.S. Pat. No. 9,434,763 B2) and Ref. 3 (A8, ZED1047). Inhibition data were determined using the classical fluorescent transamidation assay (dansylcadaverine incorporation into methylated casein, DCC-assay) as described [Buchold, C.; Hils, M.; Gerlach, U.; Weber, J.; Pelzer, C.; Heil, A.; Aeschlimann, D.; Pasternack, R. Features of ZED1227: The First-In-Class Tissue Transglutaminase Inhibitor Undergoing Clinical Evaluation for the Treatment of Celiac Disease. Cells 2022, 11, 1667. https://doi.org/10.3390/cells11101667]. Casein is one of the best known high molecular weight (24 kDa) protein substrates for transglutaminases. Please note, the IC50 value of Ref. 3 (A8) published in U.S. Pat. No. 9,434,763 B2 cannot be compared to the present data, relying on a fluorogenic isopeptidase assay.
To this extent, inhibition data were determined using the classical fluorescent transamidation assay (dansylcadaverine incorporation into methylated casein, DCC-assay) as described in Büchold et al. [Büchold, C.; Hils, M.; Gerlach, U.; Weber, J.; Pelzer, C.; Heil, A.; Aeschlimann, D.; Pasternack, R. Features of ZED1227: The First-In-Class Tissue Transglutaminase Inhibitor Undergoing Clinical Evaluation for the Treatment of Celiac Disease. Cells 2022, 11, 1667. https://doi.org/10.3390/cells11101667]. Casein is one of the best known high molecular weight (24 kDa) protein substrates for transglutaminases. Inhibition data of the inventive compounds was compared with inhibition of compounds disclosed in U.S. Pat. No. 9,434,763 B2, particularly, compound A8, which is denoted herein as Reference 3. It is noteworthy that the IC50 values of compounds A8 published in U.S. Pat. No. 9,434,763 B2 and E16 from U.S. Pat. No. 11,072,634 B2 cannot be compared to the present data, relying on a fluorogenic isopeptidase assay.
For the determination of potency of inhibitors against tissue transglutaminase, the incorporation of dansylcadaverine into dimethylcasein (Zedira product T036, Lorand et al., Anal Biochem, 1971, 44:221-31) was measured using recombinant human transglutaminase 2 (Zedira Product T022).
The tissue transglutaminase is diluted in buffer (50 mM Tris-HCl, 7.5 mM CaCl2), 150 mM NaCl, pH=7.4). The final concentration of TG2 in the assay is 10 nM.
A 10 mM inhibitor stock solution is prepared in DMSO, and from this a serial 1:2-fold dilution series is prepared also in DMSO. Each of the initial dilutions is subsequently diluted 1:50-fold with buffer (50 mM Tris-HCl, 7.5 mM CaCl2), 150 mM NaCl, pH=7.4) to yield the final working dilutions containing 2% (v/v) DMSO.
15 μl of inhibitor working dilution are added per well of a 96 well microtiter plate. As control, 15 μl of a 2% (v/v) DMSO solution prepared using the buffer mentioned above are added per well.
Immediately before starting the assay, 600 μl transglutaminase working solution are added to 11.4 ml assay buffer (50 mM Tris-HCl, 10 mM CaCl2), 10 mM glutathione, 2.5% glycerol, 16.7 µM dansylcadaverine, 4 uM N,N-dimethylcasein, 200 mM NaCl, pH=8.0). 285 μl of this reaction mix are added per well containing the inhibitor.
Increase in fluorescence is measured using λex=330 nm and λem=500 nm at 37° C. for 30 min. A slope of the increase in fluorescence between 20 and 30 min is calculated for determination of the IC50 value (inhibitor concentration at which 50% of the initial activity is blocked).
Analysis of enzymatic activity is performed by calculation of the slope of an increase in fluorescence intensity. IC50 values are calculated by plotting the enzymatic activity (as percentage from control containing 2% DMSO instead of inhibitor) against the inhibitor concentration. IC50 is defined as the inhibitor concentration blocking 50% of initial enzyme activity.

Row | SMILES | logD [1] | Papp [2] | IC50 [3]
1 | CNC(=O)C(=O)CC[C@H](NC(=O)c1snnc1CO)C(=O)Nc1cccn(CC(=O)NC2C3CC4CC(C3)CC2C4)c1=O (stereo partly drawn) [II-206, (S)-2-(4-(hydroxymethyl)-1,2,3-thiadiazole-5-carboxamido)-N1-(1-(2-(2-adamantylamino)-2-oxoethyl)-2-oxo-1,2-dihydropyridin-3-yl)-N6-methyl-5-oxohexanediamide] | < 1 | < 1 ×10⁻⁶ cm/s | 40 to 400 nM
2 | CNC(=O)C(=O)CC[C@H](NC(=O)c1csc2ccccc12)C(=O)Nc1cccn(CC(=O)NC2C3CC4CC(C3)CC2C4)c1=O (stereo partly drawn) [II-137, (S)-2-(benzo[b]thiophene-3-carboxamido)-N1-(1-(2-(2-adamantylamino)-2-oxoethyl)-2-oxo-1,2-dihydropyridin-3-yl)-N6-methyl-5-oxohexanediamide] | 3 to 5 | 1 to 10 ×10⁻⁶ cm/s | 40 to 400 nM
3 | CNC(=O)C(=O)CC[C@H](NC(=O)c1cccnn1)C(=O)Nc1cccn(CC(=O)NC2C3CC4CC(C3)CC2C4)c1=O (stereo partly drawn) [II-114, (S)-N1-(1-(2-(2-adamantylamino)-2-oxoethyl)-2-oxo-1,2-dihydropyridin-3-yl)-N6-methyl-5-oxo-2-(pyridazine-3-carboxamido)hexanediamide] | < 1 | < 1 ×10⁻⁶ cm/s | 40 to 400 nM
4 | CNC(=O)C(=O)CC[C@H](NC(=O)c1ccnn1C)C(=O)Nc1cccn(CC(=O)NC2C3CC4CC(C3)CC2C4)c1=O (stereo partly drawn) [II-140, (S)-N1-(1-(2-(2-adamantylamino)-2-oxoethyl)-2-oxo-1,2-dihydropyridin-3-yl)-N6-methyl-2-(1-methyl-1H-pyrazole-5-carboxamido)-5-oxohexanediamide] | < 1 | < 1 ×10⁻⁶ cm/s | 40 to 400 nM
5 | CNC(=O)C(=O)CC[C@H](NC(=O)c1ccnn1C)C(=O)Nc1cccn(CC(=O)N[C@@H]2C[C@@H]3CC[C@H]2C3)c1=O [II-158, (S)-N1-(1-(2-((1S,2R,4R)-bicyclo[2.2.1]heptan-2-ylamino)-2-oxoethyl)-2-oxo-1,2-dihydropyridin-3-yl)-N6-methyl-2-(1-methyl-1H-pyrazole-5-carboxamido)-5-oxohexanediamide] | < 1 | < 1 ×10⁻⁶ cm/s | 40 to 400 nM

Now from value to compound:

Row | logD [1] | Papp [2] | IC50 [3] | SMILES
6 | < 1 | < 1 ×10⁻⁶ cm/s | 40 to 400 nM | CNC(=O)C(=O)CC[C@H](NC(=O)c1ccnnc1)C(=O)Nc1cccn(CC(=O)NC2C3CC4CC(C3)CC2C4)c1=O (stereo partly drawn) [II-113, (S)-N1-(1-(2-(2-adamantylamino)-2-oxoethyl)-2-oxo-1,2-dihydropyridin-3-yl)-N6-methyl-5-oxo-2-(pyridazine-4-carboxamido)hexanediamide]
7 | < 1 | 1 to 10 ×10⁻⁶ cm/s | 40 to 400 nM | Cc1nc(C(F)(F)F)sc1C(=O)N[C@@H](CCC(=O)C(N)=O)C(=O)Nc1cccn(CC(=O)NC2C3CC4CC(C3)CC2C4)c1=O (stereo partly drawn) [II-126, (S)-N1-(1-(2-(2-adamantylamino)-2-oxoethyl)-2-oxo-1,2-dihydropyridin-3-yl)-2-(4-methyl-2-(trifluoromethyl)thiazole-5-carboxamido)-5-oxohexanediamide]
8 | 3 to 5 | 1 to 10 ×10⁻⁶ cm/s | 40 to 400 nM | O=C(Cn1cccc(NC(=O)[C@H](CCC(=O)C(=O)NC2CCCC2)NC(=O)c2nc3ccccc3s2)c1=O)N[C@@H]1C[C@@H]2CC[C@H]1C2 [II-178, (S)-2-(benzo[d]thiazole-2-carboxamido)-N1-(1-(2-((1S,2R,4R)-bicyclo[2.2.1]heptan-2-ylamino)-2-oxoethyl)-2-oxo-1,2-dihydropyridin-3-yl)-N6-cyclopentyl-5-oxohexanediamide]
9 | 1 to 3 | 1 to 10 ×10⁻⁶ cm/s | 40 to 400 nM | CNC(=O)C(=O)CC[C@H](NC(=O)c1sccc1Br)C(=O)Nc1cccn(CC(=O)NC2C3CC4CC(C3)CC2C4)c1=O (stereo partly drawn) [II-42, (S)-2-(3-bromothiophene-2-carboxamido)-N1-(1-(2-(2-adamantylamino)-2-oxoethyl)-2-oxo-1,2-dihydropyridin-3-yl)-N6-methyl-5-oxohexanediamide]
10 | 1 to 3 | 1 to 10 ×10⁻⁶ cm/s | 40 to 400 nM | Cc1c(C(=O)N[C@@H](CCC(=O)C(N)=O)C(=O)Nc2cccn(CC(=O)N[C@H]3C[C@H]4CC[C@]3(C)C4(C)C)c2=O)oc2ccccc12 [II-151, (S)-2-(3-methylbenzofuran-2-carboxamido)-5-oxo-N1-(2-oxo-1-(2-oxo-2-((1R,2S,4R)-1,7,7-trimethylbicyclo[2.2.1]heptan-2-ylamino)ethyl)-1,2-dihydropyridin-3-yl)hexanediamide]
11 | 1 to 3 | 1 to 10 ×10⁻⁶ cm/s | 40 to 400 nM | CNC(=O)C(=O)CC[C@H](NC(=O)c1nc(Br)cs1)C(=O)Nc1cccn(CC(=O)NC2C3CC4CC(C3)CC2C4)c1=O (stereo partly drawn) [II-39, (S)-2-(4-bromothiazole-2-carboxamido)-N1-(1-(2-(2-adamantylamino)-2-oxoethyl)-2-oxo-1,2-dihydropyridin-3-yl)-N6-methyl-5-oxohexanediamide]
12 | 1 to 3 | < 1 ×10⁻⁶ cm/s | 40 to 400 nM | CNC(=O)C(=O)CC[C@H](NC(=O)c1sc(OC)nc1C)C(=O)Nc1cccn(CC(=O)NC2C3CC4CC(C3)CC2C4)c1=O (stereo partly drawn) [II-18, (S)-N1-(1-(2-(2-adamantylamino)-2-oxoethyl)-2-oxo-1,2-dihydropyridin-3-yl)-2-(2-methoxy-4-methylthiazole-5-carboxamido)-N6-methyl-5-oxohexanediamide]
